According to patent US20240261274A1, “TREATMENT OF MYC-DRIVEN CANCERS WITH GSPT1 DEGRADERS” (MONTE ROSA THERAPEUTICS, INC., priority 2021, published 2024):
Read-outs that look alike come from different tables or passages of the source.

What was measured:
[1] = molecular target: T1, Full length wild-type cereblon CRBN (Homo sapiens, UniProt Q96SW2); experiment: Fluorescence polarization (FP) assay indicating cereblon binding
T1 construct: Full length wild-type cereblon CRBN (80.0 nM, 10 μL) was incubated in assay buffer
T1 sequence (Q96SW2 whole entry): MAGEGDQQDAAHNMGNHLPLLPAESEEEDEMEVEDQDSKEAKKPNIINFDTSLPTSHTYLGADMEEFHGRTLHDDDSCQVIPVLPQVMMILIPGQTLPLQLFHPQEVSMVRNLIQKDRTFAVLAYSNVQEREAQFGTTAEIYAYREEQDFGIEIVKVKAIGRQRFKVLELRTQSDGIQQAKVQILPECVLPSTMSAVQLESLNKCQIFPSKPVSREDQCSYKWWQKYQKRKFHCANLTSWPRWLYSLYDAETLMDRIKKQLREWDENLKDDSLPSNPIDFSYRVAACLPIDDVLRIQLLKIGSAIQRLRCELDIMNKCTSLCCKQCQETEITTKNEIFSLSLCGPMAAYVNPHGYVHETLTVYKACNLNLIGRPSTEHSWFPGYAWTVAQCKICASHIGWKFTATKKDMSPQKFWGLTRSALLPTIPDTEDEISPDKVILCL
Method: Compound activity was monitored in a fluorescence polarization (FP) homogeneous assay using 1-[5-({2-[2-(2-{[2-(2,6-dioxopiperidin-3-yl)-1,3-dioxo-2,3-dihydro-1H-isoindol-4-yl]oxy}acetamido)ethoxy]ethyl}carbamoyl)pentyl]-3,3-dimethyl-2-[(1E,3E)-5-[(2E)-1,3,3-trimethyl-5-sulfo-2,3-dihydro-1H-indol-2-ylidene]penta-1,3-dien-1-yl]-3H-indol-1-ium-5-sulfonate as a fluorescent probe. Unless otherwise stated, all reagents were purchased from Sigma Aldrich. Enzymatic reactions were conducted in Perkin-Elmer Black 384 well ProxiPlate Plus (catalogue no. 6008269) in 10 μL total volume. Full length wild-type cereblon CRBN (80.0 nM, 10 μL) was incubated in assay buffer containing 20 mM HEPES (pH 8.0), […], 0.5 mM TCEP and 0.05% Tween 20 in the presence or absence of compound (300 nL). Inhibitors were stored as 10 mM DMSO stocks in an inert environment (low humidity, dark, low oxygen, room temperature) using the Storage Pod System. Compounds and DMSO were dispensed using the Echo E5XX (Labcyte Inc. USA) to give concentrations from 300 to 0.937 or 3000 to 9.3 nM in a 12 data point curve. […] Following incubation at room temperature for 30 min, the assay was initiated by dispensing the probe to a final concentration of 5 nM (2.5 nL of a 20 μM stock) using the Echo E5XX. FP was measured after a period of 12 hours using a Pherastar plate reader (BMG Labtech, Germany) exciting at 590 nm and measuring the amount of parallel and perpendicular light at 675 nm. The FP signal was subsequently normalized to the no-compound control (i.e., DMSO). Analysis and IC50 values were derived using Dotmatics (Dotmatics UK) software.

GSPT1 = GSPT1 (Homo sapiens, UniProt P15170+Q96SW2); experiment: GSPT1 degradation immunofluorescence assay in CAL-51 cells; type: cell-based; design: endogenous in cells; host or cells: CAL-51 (DSMZ ACC302); conditions: 6 hours
Chain of GSPT1 (P15170 whole entry): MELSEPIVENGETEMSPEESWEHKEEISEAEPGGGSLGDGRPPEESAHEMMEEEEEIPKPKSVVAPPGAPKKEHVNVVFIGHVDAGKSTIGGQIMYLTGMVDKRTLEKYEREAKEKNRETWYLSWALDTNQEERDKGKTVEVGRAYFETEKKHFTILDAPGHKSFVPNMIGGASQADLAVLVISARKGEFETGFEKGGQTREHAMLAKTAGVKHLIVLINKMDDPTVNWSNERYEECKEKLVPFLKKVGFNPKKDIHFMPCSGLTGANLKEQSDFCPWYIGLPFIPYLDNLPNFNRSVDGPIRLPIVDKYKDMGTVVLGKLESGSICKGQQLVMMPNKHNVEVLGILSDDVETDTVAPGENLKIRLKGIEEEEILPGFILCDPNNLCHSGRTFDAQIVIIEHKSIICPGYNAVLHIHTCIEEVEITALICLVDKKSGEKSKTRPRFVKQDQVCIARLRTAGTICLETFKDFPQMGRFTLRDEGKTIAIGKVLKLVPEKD
Chain of GSPT1 (Q96SW2 whole entry): as the sequence (Q96SW2 whole entry) above
Chain of GSPT1 (Q16531 whole entry partner): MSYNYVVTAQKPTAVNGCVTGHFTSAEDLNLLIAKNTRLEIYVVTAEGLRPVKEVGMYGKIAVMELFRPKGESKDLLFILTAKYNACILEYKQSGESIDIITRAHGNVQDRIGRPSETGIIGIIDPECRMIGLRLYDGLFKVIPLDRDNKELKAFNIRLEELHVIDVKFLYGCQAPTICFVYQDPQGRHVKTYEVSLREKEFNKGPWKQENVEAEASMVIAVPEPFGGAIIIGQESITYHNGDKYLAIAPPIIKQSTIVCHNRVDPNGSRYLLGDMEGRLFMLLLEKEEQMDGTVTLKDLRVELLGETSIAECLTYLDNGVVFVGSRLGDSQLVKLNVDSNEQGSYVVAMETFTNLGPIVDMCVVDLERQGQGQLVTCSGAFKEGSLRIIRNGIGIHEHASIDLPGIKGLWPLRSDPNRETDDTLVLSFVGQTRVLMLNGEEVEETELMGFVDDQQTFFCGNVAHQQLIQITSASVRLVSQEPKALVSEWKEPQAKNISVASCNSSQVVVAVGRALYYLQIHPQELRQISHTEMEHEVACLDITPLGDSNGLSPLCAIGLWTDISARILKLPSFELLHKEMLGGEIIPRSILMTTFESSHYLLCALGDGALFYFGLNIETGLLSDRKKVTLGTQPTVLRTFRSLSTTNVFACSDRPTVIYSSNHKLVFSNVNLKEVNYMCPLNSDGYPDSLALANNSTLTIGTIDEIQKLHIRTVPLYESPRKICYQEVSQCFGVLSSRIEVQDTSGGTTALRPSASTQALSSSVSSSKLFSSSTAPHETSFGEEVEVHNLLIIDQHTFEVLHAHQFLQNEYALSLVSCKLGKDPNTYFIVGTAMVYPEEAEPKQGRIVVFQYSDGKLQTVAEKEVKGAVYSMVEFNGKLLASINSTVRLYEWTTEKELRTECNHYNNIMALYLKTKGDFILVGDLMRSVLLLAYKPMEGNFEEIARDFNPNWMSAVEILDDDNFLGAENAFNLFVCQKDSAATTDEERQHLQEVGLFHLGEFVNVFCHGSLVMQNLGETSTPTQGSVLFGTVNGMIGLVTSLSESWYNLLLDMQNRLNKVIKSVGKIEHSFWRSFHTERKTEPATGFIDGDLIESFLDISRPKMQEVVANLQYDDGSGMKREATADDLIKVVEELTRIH
Method: CAL-51 cells were purchased from DSMZ (cat. Number ACC302), sub-cultured in 90% Dulbecco's MEM (4.5 g/L glucose, Gibco 11965)+10% heat inactivated FBS (BioConcept, 2-01F1361) and incubated at 37° C., 5% CO2. For the assay, imaging microtiterplate Cell Carrier 96 Ultra (Perkin Elmer 6055302) were pre-coated with Fibronectin (Sigma F085, 30 μl at 0.2 μg/ml) in PBS (100 μl, Gibco 14190) for 45 min at room temperature, rinsed with PBS and CAL-51 cells (30K cells/well) were plated and let to adhere overnight. Cells were treated with compounds typically using a serial dilution ranging from 30 μM to 0.1 nM for 6 hours. Compounds were stored at 10 mM DMSO stocks. Vehicle (DMSO), positive (CC-885, 10 μM) and rescue controls (positive control plus 0.2 μM bortezomib) were also included at this stage. Cells were subsequently rinsed with PBS and fixed in 10% Formalin solution (50 μl, Sigma HT5011)) for 20 mins at room temperature. Following three consecutive PBS washes (100 μl), cells were permeabilized in 0.1% Triton X-100 in PBS (Sigma 93443, 50 μl) for 15 mins at room temperature. Following three further PBS washes, 50 μl blocking buffer (1% BSA, Sigma A4503, in PBS) was added for 45 min for signal-to-noise reduction. Primary antibody (human GSPT1, Sigma HPA052488) was diluted in blocking buffer (dil. 1/300, 35 μl/well) and incubated with the cells overnight at 4° C. After three PBS washes, Alexa-fluor 488 coupled secondary antibodies (Invitrogen, A32731, dil. 1/1000), Alexa-fluor 647-Phalloidin (Invitrogen, A22287, dil. 1/200) and DAPI (Thermo, #62248, dil. 1/1000) were diluted in blocking buffer and incubated with the samples for 2 hours at room temperature. After three final PBS washes, samples were conserved in 100 μl PBS in the dark, until measurement. Image acquisition was performed on the Operetta High-Content Imager (Perkin-Elmer). Fluorescence intensity of Alexa-Fluor 488 (GSPT1), Alexa-Fluor 647 (Actin) and DAPI (Nucleus) were measured. For the determination of GSPT1 DC50 values, a custom algorithm implemented in the PerkinElmer image analysis software Harmony-Acapella® was developed. After user-defined setting of adjustment parameters, the analysis was run identically without human intervention for all image fields. DAPI staining of the nuclei was used to determine the location of cells using standard nuclei detection modules. Segmentation artifacts were removed by threshold-based filters for area, roundness and intensity. The outline of the cells was determined analogously from the sum of the normalized, smoothed DAPI and Actin channel, starting from each nucleus. The Alexa-Fluor 488 (GSPT1) signal intensity in each cell was finally measured, in order to obtain a Mean intensity per cell. GSPT1 degradation (DC50) was calculated after normalization to controls and data import in CDD vault Database, using non-linear regression.

[2] = Table 5B, read-out: Activity for GSPT1 degradation, Code (DC50)
[3] = bound stated, read-out: IC50 value
[4] = Table 4, read-out: Activity for GSPT1 degradation, Code (DC50)
[5] = bounds stated, read-out: IC50 value

| Compound | IC50 ([1]; Table 3B, read-out: rFP IC50) [nM] | DC50 (GSPT1; [2]) [nM] | other results |
| --- | --- | --- | --- |
| COc1c(COC(=O)Nc2ccc(C)c(Cl)c2)ccc2c1C(=O)N(C1CCC(=O)NC1=O)C2 (stereo not shown) [Compound 570] | > 1900 | > 300 |  |
| O=C1CCC(N2Cc3c(F)cc(COC(=O)Nc4ccc(F)c(OC(F)(F)F)c4)cc3C2=O)C(=O)N1 (stereo not shown) [Compound 514] | > 1900 | 30 to 300 |  |
| C[C@@H]1CCCN1c1ccc(NC(=O)OCc2cc(F)c3c(c2)C(=O)N(C2CCC(=O)NC2=O)C3)cn1 (stereo partly shown) [Compound 523] | 600 to 1200 | ≤ 30 |  |
| CC1(C)COc2cc(NC(=O)OCc3cc(F)c4c(c3)C(=O)N(C3CCC(=O)NC3=O)C4)ccc21 (stereo not shown) [Compound 517] | ≤ 600 | ≤ 30 |  |
| O=C1CCC(N2Cc3c(F)cc(COC(=O)Nc4cc(F)cc(Cl)c4)cc3C2=O)C(=O)N1 (stereo not shown) [Compound 533] | > 1900 | 30 to 300 |  |
| CC(C)(C)c1ccc(NC(=O)OCc2cc(F)c3c(c2)C(=O)N(C2CCC(=O)NC2=O)C3)cn1 (stereo not shown) [Compound 509] | 1200 to 1900 | ≤ 30 |  |
| Cc1ccc(NC(=O)OCc2ccc3c(c2Cl)C(=O)N(C2CCC(=O)NC2=O)C3)cc1Cl (stereo not shown) [Compound 572] | > 1900 | > 300 |  |
| COc1cc(COC(=O)Nc2ccc(C3CCC3)cc2)cc2c1CN(C1CCC(=O)NC1=O)C2=O (stereo not shown) [Compound 557] | ≤ 600 | ≤ 30 |  |
| O=C1CCC(N2Cc3c(F)cc(COC(=O)Nc4cc(F)c(F)c(Cl)c4)cc3C2=O)C(=O)N1 (stereo not shown) [Compound 561] | > 1900 | ≤ 30 |  |
| COc1cc(COC(=O)Nc2cc(F)cc(OC(F)F)c2)cc2c1CN(C1CCC(=O)NC1=O)C2=O (stereo not shown) [Compound 547] | 600 to 1200 | ≤ 30 |  |
| O=C1CCC(N2Cc3c(F)cc(COC(=O)Nc4ccc(F)c(Cl)c4)cc3C2=O)C(=O)N1 (stereo not shown) [Compound 532] | > 1900 | 30 to 300 |  |
| COc1cc(COC(=O)Nc2ccc(N3CCC[C@@H]3C)nc2)cc2c1CN(C1CCC(=O)NC1=O)C2=O (stereo partly shown) [Compound 562] | ≤ 600 | 30 to 300 |  |
| O=C1CCC(N2Cc3c(F)cc(COC(=O)Nc4ccc(C5CCC5)cc4)cc3C2=O)C(=O)N1 (stereo not shown) [Compound 522] | > 1900 | ≤ 30 |  |
| CN(C)CC(=O)Oc1cccc(CNC(=O)NCc2ccc3c(c2)C(=O)N(C2CCC(=O)NC2=O)C3)c1 (stereo not shown) [Compound 136] |  |  | IC50 [1, 3]: < 1100 nM; DC50 (GSPT1; [4]): > 300 nM |
| COc1cc(COC(=O)Nc2cc(C)cc(F)c2)cc2c1CN(C1CCC(=O)NC1=O)C2=O (stereo not shown) [Compound 567] |  | ≤ 30 |  |
| COc1cc(COC(=O)Nc2ccc(F)c(OC(F)(F)F)c2)cc2c1CN(C1CCC(=O)NC1=O)C2=O (stereo not shown) [Compound 539] | 1200 to 1900 | ≤ 30 |  |
| COc1cc(COC(=O)Nc2cc(OC(F)(F)F)ccc2F)cc2c1CN(C1CCC(=O)NC1=O)C2=O (stereo not shown) [Compound 566] |  | > 300 |  |
| CC(C)(C)c1ccc(NC(=O)OCc2cc(F)c3c(c2)C(=O)N(C2CCC(=O)NC2=O)C3)cc1 (stereo not shown) [Compound 510] | > 1900 | 30 to 300 |  |

| Compound | IC50 ([1]; Table 3B, read-out: rFP IC50) [nM] | DC50 (GSPT1; [2]) [nM] | other results |
| --- | --- | --- | --- |
| Cc1ccc(NC(=O)OCc2ccc3c(c2C)C(=O)N(C2CCC(=O)NC2=O)C3)cc1Cl (stereo not shown) [Compound 573] | ≤ 600 | > 300 |  |
| Cc1c(Cl)cc(NC(=O)NCc2ccc3c(c2)C(=O)N(C2CCC(=O)NC2=O)C3)cc1CN1CC2CC1CO2 (stereo not shown) [Compound 139] |  |  | IC50 [1, 3]: < 1100 nM; DC50 (GSPT1; [4]): ≤ 100 nM |
| O=C1CCC(N2Cc3c(F)cc(COC(=O)Nc4ccc(-c5ccccc5F)c(F)c4)cc3C2=O)C(=O)N1 (stereo not shown) [Compound 529] | > 1900 | ≤ 30 |  |
| Cc1cccc(NC(=O)NCc2ccc3c(c2)C(=O)N(C2CCC(=O)NC2=O)C3)c1 (stereo not shown) [Compound 43] |  |  | IC50 [1, 5]: < 600 nM |
| O=C1CCC(N2Cc3ccc(CNC(=O)NCCc4ccccc4)cc3C2=O)C(=O)N1 (stereo not shown) [Compound 27] |  |  | IC50 [1, 5]: < 600 nM |
| O=C1CCC(N2Cc3ccc(CNC(=O)Nc4ccccc4F)cc3C2=O)C(=O)N1 (stereo not shown) [Compound 48] |  |  | IC50 [1, 5]: < 600 nM |
| O=C1CCC(N2Cc3ccc(CNC(=O)NCC4CCCCC4)cc3C2=O)C(=O)N1 (stereo not shown) [Compound 58] |  |  | IC50 [1, 5]: < 600 nM |
| COc1cc(COC(=O)Nc2cc(-c3ccccc3)ccn2)cc2c1CN(C1CCC(=O)NC1=O)C2=O (stereo not shown) [Compound 556] | ≤ 600 |  |  |
| CC1(c2ccc(NC(=O)OCc3cc(F)c4c(c3)C(=O)N(C3CCC(=O)NC3=O)C4)cc2)CC1 (stereo not shown) [Compound 513] | > 1900 |  |  |
| Cc1ccccc1-c1ccc(NC(=O)OCc2cc(F)c3c(c2)C(=O)N(C2CCC(=O)NC2=O)C3)cn1 (stereo not shown) [Compound 519] | ≤ 600 |  |  |
| Cc1cc(NC(=O)OCc2cc(F)c3c(c2)C(=O)N(C2CCC(=O)NC2=O)C3)cnc1-c1ccccc1 (stereo not shown) [Compound 520] | 600 to 1200 | ≤ 30 |  |
| O=C1CCC(N2Cc3c(F)cc(COC(=O)Nc4cc(F)c(-c5ccccc5)c(F)c4)cc3C2=O)C(=O)N1 (stereo not shown) [Compound 530] | > 1900 | 30 to 300 |  |
| Cc1cc(C)cc(NC(=O)OCc2cc(F)c3c(c2)C(=O)N(C2CCC(=O)NC2=O)C3)c1 (stereo not shown) [Compound 531] | > 1900 |  |  |
| O=C1CCC(N2Cc3ccc(CNC(=O)Nc4ccc(Cl)cc4Cl)cc3C2=O)C(=O)N1 (stereo not shown) [Compound 45] |  |  | IC50 [1, 5]: < 600 nM |
| O=C1CCC(N2Cc3ccc(CNC(=O)Nc4ccc(F)c(F)c4)cc3C2=O)C(=O)N1 (stereo not shown) [Compound 39] |  |  | IC50 [1, 5]: < 600 nM |
| Cc1cc(Cl)cc(NC(=O)OCc2cc(F)c3c(c2)C(=O)N(C2CCC(=O)NC2=O)C3)c1 (stereo not shown) [Compound 527] | 1200 to 1900 | 30 to 300 |  |
| COc1cc(COC(=O)Nc2cc(C)cc(C)c2)cc2c1CN(C1CCC(=O)NC1=O)C2=O (stereo not shown) [Compound 552] | ≤ 600 |  |  |
| COc1ccc(C)cc1NC(=O)NCc1ccc2c(c1)C(=O)N(C1CCC(=O)NC1=O)C2 (stereo not shown) [Compound 17] |  |  | IC50 [1, 5]: < 600 nM |
